Assay results taken from publication PMC12396409, “Screening and hit evaluation of a microbial metabolite library against the pathogenic Plasmodium falciparum and Toxoplasma gondii parasites” (International Journal for Parasitology: Drugs and Drug …, 2025).
Where two headings read alike, the source gives them in different places.

Key:
[1] = test system: P. falciparum 3D7 parasites; assay: P. falciparum growth inhibition assay, 1-cycle (72 h treatment), SYBR DNA staining (library screen at 2 μg/mL and dose-response); type: cell-based, Plasmodium falciparum; details: 72 h; for activity at 2 µg/mL: Plasmodium falciparum, 3D7, 72 h
[2] = test system: T. gondii RH strain (RH-Tub-eYFP) tachyzoites; assay: microbe, parasite or virus in culture; type: cell-based, Toxoplasma gondii; details: 72 h; for percent parasite growth at 2 µg/mL: Toxoplasma gondii
[3] = test system: P. falciparum 3D7 parasites; assay: P. falciparum growth inhibition assay, 2-cycle (120 h treatment), delayed-death screen and dose-response; type: cell-based, Plasmodium falciparum; details: 120 h; for activity at 2 µg/mL: Plasmodium falciparum, 3D7, 120 h
[4] = library screen at 2 μg/mL, % growth, replicate 1
[5] = library screen at 2 μg/mL, % growth, replicate 2
[6] = P. falciparum, screen at 2 μg/mL, replicate 1
[7] = P. falciparum, screen at 2 μg/mL, replicate 2
[8] = T. gondii, screen at 2 μg/mL, replicate 1
[9] = T. gondii, screen at 2 μg/mL, replicate 2
[10] = P. falciparum, screen at 2 μg/mL, replicate 1, read-out: Pf_72h_%Growth_Rep1
[11] = P. falciparum, screen at 2 μg/mL, replicate 2, read-out: Pf_72h_%Growth_Rep2
[12] = T. gondii, screen at 2 μg/mL, replicate 1, read-out: Tg_72h_%Growth_Rep1
[13] = T. gondii, screen at 2 μg/mL, replicate 2, read-out: Tg_72h_%Growth_Rep2
[14] = P. falciparum, screen at 2 μg/mL, replicate 1, read-out: Pf_120h_%Growth_Rep1
[15] = P. falciparum, screen at 2 μg/mL, replicate 2, read-out: Pf_120h_%Growth_Rep2
[16] = P. falciparum, parasite screen 2 μg/mL, % growth, replicate 1
[17] = P. falciparum, parasite screen 2 μg/mL, % growth, replicate 2

C/C=C\C=C\[C@@H]1O[C@](O)([C@H](CC)C(=O)NC/C=C/C=C(\C)[C@@H](OC)[C@@H](C)[C@H]2C[C@@H](O)[C@@H](/C=C/C=C/C=C/C(=O)O)O2)[C@H](O)[C@H](O)C1(C)C [A 83016F]
Pf_72h_%Growth_Rep1 [1, 4]: 83.31%
Pf_72h_%Growth_Rep2 [1, 5]: 85.46%
Tg_72h_%Growth_Rep1 [2, 4]: 147.54%
Tg_72h_%Growth_Rep2 [2, 5]: 91.91%
Pf_120h_%Growth_Rep1 [3, 4]: 83.40%
Pf_120h_%Growth_Rep2 [3, 5]: 76.05%

CC(=O)c1c(O)c(C(C)=O)c(O)c(C(C)=O)c1O [Triacetylphloroglucinol]
Pf_72h_%Growth_Rep1 [1, 6]: 83.84%
Pf_72h_%Growth_Rep2 [1, 7]: 50.48%
Tg_72h_%Growth_Rep1 [2, 8]: 132.07%
Tg_72h_%Growth_Rep2 [2, 9]: 93.42%
Pf_120h_%Growth_Rep1 [3, 6]: 80.17%
Pf_120h_%Growth_Rep2 [3, 7]: 112.26%

Nc1ncnc2c1ccn2[C@@H]1O[C@H](CO)[C@@H](O)[C@H]1O [Tubercidin]
activity at 2 µg/mL [1, 10]: 7.17%
activity at 2 µg/mL [1, 11]: 7.42%
percent parasite growth at 2 µg/mL [2, 12]: 3.92%
percent parasite growth at 2 µg/mL [2, 13]: 3.05%
activity at 2 µg/mL [3, 14]: 40.9%
activity at 2 µg/mL [3, 15]: 12.8%

C/C1=C\[C@@H](C)C/C=C/[C@H]2[C@@H]3O[C@]3(C)[C@@H](C)[C@H]3[C@H](Cc4c[nH]c5ccccc45)NC(=O)[C@]32C(=O)/C=C/C(=O)[C@@H]1O [Chaetoglobosin A]
activity at 2 µg/mL [1, 10]: 10.6%
activity at 2 µg/mL [1, 11]: 0.38%
percent parasite growth at 2 µg/mL [2, 12]: 51.1%
percent parasite growth at 2 µg/mL [2, 13]: 65.4%
activity at 2 µg/mL [3, 14]: 17.4%
activity at 2 µg/mL [3, 15]: 22.2%

O=C1N[C@@H](Cc2ccccc2)C(=O)N[C@H]1Cc1ccccc1 [Cyclo(L-Phe-L-Phe)]
Pf_72h_%Growth_Rep1 [1, 6]: 87.79%
Pf_72h_%Growth_Rep2 [1, 7]: 85.43%
Tg_72h_%Growth_Rep1 [2, 8]: 128.27%
Tg_72h_%Growth_Rep2 [2, 9]: 97.95%
Pf_120h_%Growth_Rep1 [3, 6]: 99.78%
Pf_120h_%Growth_Rep2 [3, 7]: 97.44%

Cc1cc(O)c2c(c1)C(=O)C13C(=C2O)C(=O)C2C(O)C1C1C(O)C3C(=O)C3=C(O)c4c(O)cc(C)cc4C(=O)C321 (stereo not drawn) [Rugulosin - form]
Pf_72h_%Growth_Rep1 [1, 16]: 4.91%
Pf_72h_%Growth_Rep2 [1, 17]: 2.27%
Tg_72h_%Growth_Rep1 ([2]; T. gondii, parasite screen 2 μg/mL, % growth, replicate 1): 9.47%
Tg_72h_%Growth_Rep2 ([2]; T. gondii, parasite screen 2 μg/mL, % growth, replicate 2): 14.48%
Pf_120h_%Growth_Rep1 [3, 16]: 0.79%
Pf_120h_%Growth_Rep2 [3, 17]: 8.22%

CC[C@H]1C[C@@H]2CC[C@@H](O2)[C@@H](C)C(=O)O[C@H](CC)C[C@H]2CC[C@H](O2)[C@H](C)C(=O)O[C@@H](CC)C[C@@H]2CC[C@@H](O2)[C@@H](C)C(=O)O[C@H](CC)C[C@H]2CC[C@H](O2)[C@H](C)C(=O)O1 [Tetranactin]
Pf_72h_%Growth_Rep1 [1, 6]: 6.09%
Pf_72h_%Growth_Rep2 [1, 7]: -9.23%
Tg_72h_%Growth_Rep1 [2, 8]: 5.41%
Tg_72h_%Growth_Rep2 [2, 9]: 2.84%
Pf_120h_%Growth_Rep1 [3, 6]: 29.81%
Pf_120h_%Growth_Rep2 [3, 7]: 14.39%

C[C@@H]1CCC[C@@H](O)CCC/C=C/c2cc(O)cc(O)c2C(=O)O1 [Zearalenol, alpha-]
Pf_72h_%Growth_Rep1 [1, 6]: 64.20%
Pf_72h_%Growth_Rep2 [1, 7]: 80.17%
Tg_72h_%Growth_Rep1 [2, 8]: 85.29%
Tg_72h_%Growth_Rep2 [2, 9]: 104.82%
Pf_120h_%Growth_Rep1 [3, 6]: 153.36%
Pf_120h_%Growth_Rep2 [3, 7]: 83.41%

CC(=O)O[C@H]1CC[C@]2(C)[C@H]3CC[C@]4(C)Oc5oc(C)cc(=O)c5C[C@H]4[C@]3(C)CC[C@H]2C1(C)C [Chevalone C]
Pf_72h_%Growth_Rep1 [1, 6]: 92.41%
Pf_72h_%Growth_Rep2 [1, 7]: 79.15%
Tg_72h_%Growth_Rep1 [2, 8]: 84.01%
Tg_72h_%Growth_Rep2 [2, 9]: 91.63%
Pf_120h_%Growth_Rep1 [3, 6]: 145.74%
Pf_120h_%Growth_Rep2 [3, 7]: 96.88%
